Values of other authors, collected in patent US8063151B2, “Methods for manufacturing copolymers having 1-methyl-2-methoxyethyl moieties and use of same” (Abbott Laboratories, priority 2006, dated 2011).

Conditions: comparison with ethanol

SMILES: COCC(C)O (stereo not shown) [1-methoxy-2-propanol]
- toxicity compared with other solvents: in a range more similar to ethanol
